# Assay results as given in US20080241263A1, “Oral and/or Topical Compositions Comprising Prebiotics and Sterols” (priority 2004, published 2008).
# Assays:
# Bifidobacterium = assay: Stimulation of growth: enumeration of bifidobacterium in vitro in human faecal homogenate / WC broth; assay type: cell-based, Bifidobacterium spp; conditions: incubated up to 24 hours
# Method: (§1) The stimulation of growth of micro-organisms has been studied by enumerating bifidobacterium and lactobacilli in vitro in the presence of various test substances. More specifically, aliquots (1 mL) of human faecal homogenates (10 g per 100 mL diluent) were added to diluted WC broth (diluted 50:50 with 0.05M phosphate buffer) to which were added the test mixtures and a lactobacillus or bifidobacterium strain. For each of the combinations, parallel tubes were prepared with one set being inoculated with Bifidobacterium spp or Lactobacillus spp. All mixtures were then incubated for up to 24 hours and bacterial numbers enumerated.
# Lactobacterium = assay: Stimulation of growth: enumeration of lactobacilli in vitro in human faecal homogenate / WC broth; assay type: cell-based, Lactobacillus spp; conditions: incubated up to 24 hours
# Method: as §1
Compound,Bacterial numbers (CFU/ml) (Bifidobacterium; 1% test substance/mixture),Bacterial numbers (CFU/ml) (Lactobacterium; 1% test substance/mixture),Bacterial numbers (CFU/ml) (Bifidobacterium; 1% test substance),Bacterial numbers (CFU/ml) (Lactobacterium; 1% test substance)
Lactolin [C3],1.6 × 10^7 CFU/ml,1.5 × 10^6 CFU/ml,,
"CC[C@H](CC[C@@H](C)[C@H]1CC[C@H]2[C@@H]3CC=C4C[C@@H](O)CC[C@]4(C)[C@H]3CC[C@]12C)C(C)C [C5, β-Sitosterol]",,,3.3 × 10^6 CFU/ml,4.4 × 10^5 CFU/ml
"OC[C@H]1O[C@@H](O[C@H]2[C@H](O)[C@@H](O)[C@@H](O[C@]3(CO)O[C@H](CO)[C@@H](O)[C@@H]3O)O[C@@H]2CO)[C@H](O)[C@@H](O)[C@H]1O [C2, Lactosucrose]",1.1 × 10^7 CFU/ml,1.1 × 10^6 CFU/ml,,
"CCCCCCCCCCCCCCCCCC(=O)O[C@H]1CC[C@@]2(C)[C@@H](CC[C@@H]3[C@@H]2CC[C@]2(C)[C@@H]([C@H](C)CC[C@@H](CC)C(C)C)CC[C@@H]32)C1 [C8, β-Sitostanolstearate]",,,3.2 × 10^6 CFU/ml,4.5 × 10^5 CFU/ml
"CCCCCCCCCCCCCCCC(=O)O[C@H]1CC[C@@]2(C)C(=CC[C@H]3[C@@H]4CC[C@H]([C@H](C)CC[C@@H](CC)C(C)C)[C@@]4(C)CC[C@@H]32)C1 [C7, β-Sitosterolpalmitate]",,,2.7 × 10^6 CFU/ml,4.4 × 10^5 CFU/ml
Betaglucan [C4],1.2 × 10^7 CFU/ml,1.1 × 10^6 CFU/ml,,
"CC[C@H](CC[C@@H](C)[C@H]1CC[C@H]2[C@@H]3CC[C@H]4C[C@@H](O)CC[C@]4(C)[C@H]3CC[C@]12C)C(C)C [C6, β-Sitostanol]",,,2.4 × 10^6 CFU/ml,4.4 × 10^5 CFU/ml
